Laboratory results from patent publication US8133849B2, “Herbicidal compounds” (Syngenta Limited, priority 2007, dated 2012).

Experiments:
Format in all cases: in vivo
test plants [1] = experiment: Example B1 herbicidal action, post-emergence, all test species together; settings: Example B1 protocol, 1000 g/ha, after 9 days, result in words
Method: (§1) Seeds of a variety of test species were sown in sterilized standard soil in seed trays each having 96 cells. After cultivation for 8 to 9 days cultivation (post-emergence) under controlled conditions in a climatic chamber (cultivation at 23/17° C., day/night; 13 hours light; 50-60% humidity), the plants were treated with an aqueous spray solution of 1000 mg/l of the active ingredient dissolved in 10% DMSO (dimethyl sulfoxide, CAS RN 67-68-5) as a solvent, equivalent to 1000 g/ha. The plants were grown in the climatic chamber after application at (24/19° C., day/night; 13 hours light; 50-60% humidity) and watered twice daily. After 9 days until the test was evaluated (10=total damage to plant, 0=no damage to plant)

Nasturtium officinale = experiment: Example B1 herbicidal action, post-emergence, seed trays in climatic chamber, damage score 0-10; settings: 1000 g/ha, evaluated after 9 days, 10=total damage to plant, 0=no damage to plant
Method: as §1

Solanum nigrum = experiment: as above; settings: 1000 g/ha, evaluated after 9 days, 10=total damage to plant, 0=no damage to plant
Method: as §1

Amaranthus retroflexus = experiment: as above; settings: 1000 g/ha, evaluated after 9 days, 10=total damage to plant, 0=no damage to plant
Method: as §1

Stellaria media = experiment: as above; settings: 1000 g/ha, evaluated after 9 days, 10=total damage to plant, 0=no damage to plant
Method: as §1

test plants [2] = experiment: Example B2 herbicidal action, post-emergence, pots in glasshouse, damage score 0-10 (10=total damage to plant; 0=no damage to plant); settings: Example B2 protocol, after 13 days, result in words
Method: Seeds of a variety of test species were sown in standard soil in pots. After 8 days cultivation (post-emergence) under controlled conditions in a glasshouse (at 24/16° C., day/night; 14 hours light; 65% humidity), the plants were sprayed with an aqueous spray solution derived from the formulation of the technical active ingredient in acetone/water (50:50) solution containing 0.5% Tween 20 (polyoxyethelyene sorbitan monolaurate, CAS RN 9005-64-5). The test plants were then grown in a glasshouse under controlled conditions in a glasshouse (at 24/16° C., day/night; 14 hours light; 65% humidity) and watered twice daily. After 13 days, the test was evaluated (10=total damage to plant; 0=no damage to plant).

Chenopodium album = experiment: Example B3 herbicidal action, post-emergence, small pots in glasshouse, damage score 0-10; settings: 1000 g/ha, evaluated after 13 days, 10=total damage to plant, 0=no damage to plant
Method: (§2) Seeds of a variety of test species were sown in sterilized compost in small pots. After cultivation for seven days (post-emergence) in controlled conditions in the glasshouse (at 24/16° C., day/night; 14 hours light; 65% humidity) the plants were sprayed with 1 mg of the active ingredient, formulated in 2.5 ml acetone/water (50:50) solution, which is equivalent to 1000 g/ha. Once the foliage was dry, the pots were kept in the glasshouse (at 24/16° C., day/night; 14 hours light; 65% humidity), and were watered twice daily. After 13 days the test was evaluated (10=total damage to plant, 0=no damage to plant).

Alopecurus myosuroides = experiment: as above; settings: 1000 g/ha, evaluated after 13 days, 10=total damage to plant, 0=no damage to plant
Method: as §2

Compound | damage to the test plants (test plants [1]) | damage to plant, NAAOF (Nasturtium officinale) | damage to plant, SOLNI (Solanum nigrum) | damage to plant, AMARE (Amaranthus retroflexus) | damage to plant, STEME (Stellaria media) | damage to the test plants (test plants [2]) | damage to plant, CHEAL (Chenopodium album) | damage to plant, ALOMY (Alopecurus myosuroides)
CC(C)C(=O)OC1=C(c2ccc(Cl)cc2Cl)S(=O)(=O)Nc2nccnc21 [Compound B2] | little or no damage |  |  |  |  |  |  | 
CC(C)(C)C(=O)OC1=C(c2ccc(Cl)c(Cl)c2)S(=O)(=O)Nc2nccnc21 [Compound B4] | little or no damage |  |  |  |  |  |  | 
CN1c2nccnc2C(OC(=O)C(C)(C)C)=C(c2ccc(Cl)cc2Cl)S1(=O)=O [Compound C2] |  | 4 | 0 | 3 | 6 |  |  | 
COC1=C(c2ccc(Cl)cc2Cl)S(=O)(=O)N(C)c2nccnc21 [Compound C3, 3-(2,4-dichloro-phenyl)-4-methoxy-1-methyl-1H-2-thia-1,5,8-triazanaphthalen-2,2-dioxide] |  | 2 | 3 | 1 | 2 |  |  | 
CN1c2nccnc2C(OC(=O)C(C)(C)C)=C(c2c(F)ccc(F)c2Cl)S1(=O)=O [Compound C4] |  | 6 | 5 | 7 | 8 |  |  | 
CCN1c2nccnc2C(OC(=O)C(C)(C)C)=C(c2ccc(Cl)cc2Cl)S1(=O)=O [Compound C5] |  | 8 | 1 | 5 | 7 |  |  | 
CCN1c2nccnc2C(OC(=O)C(C)C)=C(c2ccc(Cl)cc2Cl)S1(=O)=O [Compound C6] |  | 8 | 7 | 0 | 8 |  |  | 
CCN1c2nccnc2C(OC(=O)C(C)(C)C)=C(c2c(F)ccc(F)c2Cl)S1(=O)=O [Compound C7] |  | 8 | 7 | 3 | 8 |  |  | 
CN1c2nccnc2C(OC(=O)C(C)(C)C)=C(c2ccc(Cl)c(Cl)c2)S1(=O)=O [Compound C8] |  | 0 | 7 | 2 | 0 |  |  | 
CC(C)C(=O)OC1=C(c2c(F)ccc(F)c2Cl)S(=O)(=O)N(C)c2nccnc21 [Compound C9] |  | 6 | 4 | 7 | 6 |  |  | 
CCN1c2nccnc2C(OC(=O)C(C)(C)C)=C(c2ccc(Cl)c(Cl)c2)S1(=O)=O [Compound C10] |  |  |  |  |  | little or no damage |  | 
CC(C)(C)C(=O)OC1=C(c2ccc(Cl)cc2Cl)S(=O)(=O)N(CC(F)F)c2nccnc21 [Compound C12, 2,2-dimethyl-propionic acid-3-(2,4-dichloro-phenyl)-1-(2,2-difluoroethyl)-2,2-dioxo-1,2-dihydro-2-λ-6-thia-1,5,8-triaza-naphthalen-4-yl ester] |  |  |  |  |  |  | 9 | 6
CCN1c2nccnc2C(OC(=O)C(C)(C)C)=C(c2cccc(C(F)(F)F)c2)S1(=O)=O [Compound C14] |  |  |  |  |  | little or no damage |  | 
COC1=C(c2cc3ccccc3nc2Cl)S(=O)(=O)N(C)c2nccnc21 [Compound C40] |  | 0 | 0 | 0 | 1 |  |  | 
CN1c2nccnc2C(OC(=O)C(C)(C)C)=C(c2cc3ccccc3nc2Cl)S1(=O)=O [Compound C41] |  | 8 | 0 | 0 | 4 |  |  | 
CC(C)(C)C(=O)OC1=C(c2ccccc2[N+](=O)[O-])S(=O)(=O)N(CC(F)F)c2nccnc21 [Compound C66] |  |  |  |  |  | little or no damage |  | 
CN1c2nccnc2C(O)=C(c2ccc(Cl)cc2Cl)S1(=O)=O [Compound D1] |  | 7 | 0 | 0 | 8 |  |  | 
CN1c2nccnc2C(O)=C(c2c(F)ccc(F)c2Cl)S1(=O)=O [Compound D2] |  | 7 | 7 | 7 | 7 |  |  | 
C#CCN1c2nccnc2C(O)=C(c2ccccc2[N+](=O)[O-])S1(=O)=O [Compound D40, 3-(2-nitro-phenyl)-2,2-dioxo-1-prop-2-ynyl-1,2-dihydro-2-λ-6-thia-1,5,8-triaza-naphthalen-4-ol] |  |  |  |  |  | little or no damage |  | 
CCOC(=O)c1ccc(C(F)(F)F)nc1C1=C(O)c2nccnc2N(CCC(F)F)S1(=O)=O [Compound D58, 2-[1-(3,3-difluoro-propyl)-4-hydroxy-2,2-dioxo-1,2-dihydro-2-λ-6-thia-1,5,8-triaza-naphthalen-3-yl]-6-trifluoromethyl-nicotinic acid ethyl ester] |  |  |  |  |  | little or no damage |  | 
